The record followed here is patent publication US20050158817A1, “Method for the production of a fermentation product from an organism” (Technische Universiteit Delft, priority 2003, published 2005).

The test system of this test is Pseudomonas putida KT2442.

Description: In accordance with the method of Weusthuis et al. (2001) Biopolymers 3a: Polyesters I: Biological Systems and Biotechnological Production, Wiley-VCH, pp. 291-316, Pseudomonas putida KT2442 was cultured in 8 litres of medium in a 10-litre fed-batch fermentor at 30° C. […] The carbon source in the culture consisted of free fatty acids obtained from coconut oil (Vereenigde Oliefrabrieken, Rotterdam, the Netherlands) in a concentration of 0.4 vol./vol. % per litre of medium, yielding 131 g dry bacteria mass per litre of medium. This carbon source causes the organism to accumulate polyhydroxy alkanoate inclusion bodies. After fermentation, the batter was stored for a maximum of 3 months at 4-8° C.
250 ml of fermentation batter of Pseudomonas putida KT2442 was stirred for 1 hour using a magnetic agitator. […] After adjusting the pH, the mixture was stirred for 30 minutes using a magnetic agitator, whereafter it was homogenised with the aid of a homogeniser (Constant Cell Disruption Systems, Low March, Leerdam, the Netherlands) having a cell volume of 10 ml. The homogeniser was operated at a temperature of 10° C. and the mixture to be homogenised was cooled between homogenisation passages. The number of homogenisation passages was varied from 0 to 5 and the effect of the homogenisation pressure in 1 passage was assessed at 1.0, 1.3, 1.6 or 2.0 kbar. […]

For the compound `N` [ammonium hydroxide], the “release of inclusion bodies into the supernatant without homogenisation” value (pH 11, zero passages (N), cells stored 9 weeks at 4-8° C.) is listed as “releases a fraction of the inclusion bodies into the supernatant even at zero passages”. For the same compound, the “fraction of free inclusion bodies released from the cells versus homogenisation pressure” value (pre-treatment at pH 11, 1 passage at 1.0, 1.3, 1.6 or 2.0 kbar, compared with untreated cells, FIG. 1) is on record as “more inclusion bodies are released from the cells”.
